From patent US11213499B1, “Use of 3,3′-diselenodipropionic acid (DSePA) as an anticancer agent” (Secretary, Department of Atomic Energy, priority 2020, dated 2022)

System: WI-38 (Human normal lung fibroblast)
Test: SRB/MTT assay, normal WI-38 cells
Type: cell-based
Protocol: The anticancer effect of DSePA was evaluated using a panel of twenty-five human cancer cell lines of different tissue origins. Cells were treated with the increasing concentrations (0.1-100 μM) of DSePA for 48 h and viability was monitored by (Sulforhodamine B) SRB assay or MTT assay.
Cell culture and DSePA synthesis—DSePA was synthesized and characterized as described in our previous reports. Cell lines were cultured in growth medium (DMEM/RPMI) supplemented with 10% FBS, 100 U/ml penicillin and 100 μg/ml streptomycin at 37° C. in a humidified 5% CO2 environment. The stock solution of DSePA was prepared fresh in cell culture medium and diluted with the same to achieve the desired concentrations.
SRB/MTT Assay—To evaluate the anti-proliferative effect of DSePA, Cells (˜5×10^3) suspended in 100 μl of complete culture medium were seeded in each well of 96 well plates. The cells were allowed to attach and grow for 24 h, treated with desired concentrations of DSePA dissolved in culture medium for 48 h and then processed for SRB/MTT assay as described in literature. The percentage (%) cytotoxicity was calculated from the decrease in absorbance as compared to that of control group.

For `O=C(O)CC[Se][Se]CCC(=O)O` [DSePA, 3,3′-diselenodipropionic acid], the GI50 (Homo sapiens, WI-38 normal cells, 48 hours treatment, SRB/MTT assay, read-out: GI50 (Concentration of drug causing 50% inhibition of cell growth)) was > 100 µM and the “toxicity in normal cell types” value (WI-38, 0.1-100 μM, 48 h) was “did not show toxicity”.
